Active and inactive are the calls of the source. The rule behind the calls is not given here.

A short description of this assay: TIM10 isogenic strain growth inhibitors – luminescence, S. cerevisiae, counter-screen for tim23-1 inhibitor project, SAR follow-up (AID 602380). The settings on record: S. cerevisiae TIM10 isogenic control strain, BacTiter-Glo growth luminescence. On the technique in general: The purpose of a counterscreen is to sort out artefacts and off-target activity.
The term IC50 denotes the point on the concentration scale where inhibition reaches its midpoint. Consider `N/C(=N\OC(=O)c1ccc(Cl)cc1)c1ccc(-c2csnn2)cc1`, for which the IC50 is > 99 µM (inactive).

`Cc1nc2scc(C)n2c(=O)c1S(=O)(=O)Nc1ccc(N2CCN(C(=O)C(C)C)CC2)cc1`: the IC50 was > 99 µM (inactive).

On to `O=C(CSc1cccc[n+]1[O-])Nc1ccccc1Oc1ccccc1`, for which the 50% inhibitory concentration (IC50) was 0.806 µM.

As for `O=C(NN=C/C=C\c1ccco1)c1cccs1`, the concentration for half-maximal inhibition (IC50) was 4.48 µM.

Consider `CC(C)(C)c1csc(NC(=O)c2ccc(Cl)s2)n1`, for which the IC50 is 9.68 µM.

With `CS(=O)(=O)Nc1ccc(/C(N)=N/OC(=O)c2ccccc2Cl)cc1`, the IC50 was 66.4 µM.

For `Cc1nc2scc(C)n2c(=O)c1S(=O)(=O)Nc1ccc(F)cc1Cl`, the concentration for half-maximal inhibition (IC50) was 68.1 µM.

Turning to `Cc1ccc2nc(N3C(=O)CNC3=S)sc2c1`, the concentration for half-maximal inhibition (IC50) is 6.81 µM.

With `Cc1ccc(Nc2nc(-c3cccnc3)nc3ccccc23)cc1`, the IC50 is 4.04 µM.

Consider `CC(C)Cn1cnc2c(c(-c3ccccc3)c(-c3ccccc3)n2Cc2ccco2)c1=N`, for which the IC50 was 34.3 µM.

On to `Oc1ccc(Oc2ccc(Oc3ccc(O)cc3)cc2)cc1`, for which the half-inhibitory concentration (IC50) was 5.69 µM.

In the case of `N=c1c2c(-c3ccccc3)c(-c3ccccc3)n(Cc3ccco3)c2ncn1CCCN1CCOCC1`, the IC50 was > 99 µM (inactive).

As to `Cc1c2c(n(Cc3ccco3)c1C)N=CN1CCS(=O)(=O)N=C21`, the concentration for half-maximal inhibition (IC50) was 48.5 µM.

As for `Cc1nc2scc(C)n2c(=O)c1S(=O)(=O)Nc1cccc(C(F)(F)F)c1`, the IC50 is 35.6 µM.

With `O=C(Nc1ccc2nc(-c3ccc(Br)o3)[nH]c2c1)c1cccs1`, the 50% inhibitory concentration (IC50) is 30.9 µM.

`CCOc1cc2ccccc2cc1C(=O)O/N=C(\N)c1ccc(Cl)cc1`: the half-maximal inhibitory concentration (IC50) was 2.42 µM.

Consider `N/C(=N\OC(=O)c1ccc(Cl)c(Cl)c1)c1cccc(CS(=O)(=O)c2ccccn2)c1`, for which the IC50 is 15.6 µM.

For the molecule `O=S(=O)(Nc1ccc(-c2cn3c(n2)SCC3)cc1)c1cccnc1`, the IC50 is > 99 µM (inactive).

For `O=C(CSCc1ccccc1)Nc1cc(S(=O)(=O)N2CCOCC2)ccc1Oc1ccccc1`, the IC50 was > 99 µM (inactive).

As for `CN(C(=O)c1cccc(S(C)(=O)=O)c1)c1c(N)n(Cc2ccccc2)c(=O)[nH]c1=O`, the IC50 was > 99 µM (inactive).

Take `Cc1ccc2nc(N3CCN(S(=O)(=O)C4CC4)CC3)[nH]c2c1`: the IC50 is 49.4 µM.

In the case of `N/C(=N\OC(=O)c1ccc2ncsc2c1)c1ccccc1`, the half-inhibitory concentration (IC50) was 9.17 µM.

For the molecule `Cc1nc(SCc2cc(=O)n3cc(Br)ccc3n2)c(C#N)c(C)c1C`, the IC50 was > 99 µM (inactive).

With `Cc1nc2scc(C)n2c(=O)c1S(=O)(=O)Nc1ccc(N2CCOCC2)cc1`, the IC50 is > 99 µM (inactive).

As for `N/C(=N\OC(=O)c1ccc2ncsc2c1)c1ccc(Cl)cc1Cl`, the IC50 was 2.57 µM.

Take `CN1CCc2nc3sc(C(=O)C45CC6CC(CC(C6)C4)C5)c(N)c3cc2C1`: the IC50 was 42.1 µM.

`Cc1nc2scc(C)n2c(=O)c1S(=O)(=O)Nc1ccc(OC(F)(F)F)cc1`: the IC50 is 21.6 µM.

For `COc1cc2c(cc1OC)/C(=C/c1ccc(Cl)cc1)C(=O)OC2`, the concentration for half-maximal inhibition (IC50) is 2.61 µM.

In the case of `C(/C=C/c1ccccc1)=NNc1nc2ccccc2[nH]1`, the 50% inhibitory concentration (IC50) was 8.98 µM.

Take `Cc1noc(C)c1S(=O)(=O)Nc1ccc(-c2cn3c(n2)SCC3)cc1`: the IC50 was 79.2 µM.

For the molecule `Cc1nc2scc(C)n2c(=O)c1S(=O)(=O)Nc1ccc(N2CCN(S(C)(=O)=O)CC2)cc1`, the IC50 was > 99 µM (inactive).

`COc1ccc(/C(N)=N/OC(=O)c2ccc(C(F)(F)F)cc2)c(OC)c1`: the concentration for half-maximal inhibition (IC50) is 72.7 µM.

As to `COc1ccc([N+](=O)[O-])cc1NS(=O)(=O)c1c(C)nc2scc(C)n2c1=O`, the IC50 is > 99 µM (inactive).

Turning to `Cc1cccn2c(=O)cc(CSc3cc(C(=O)NC4CC4)c4ccccc4n3)nc12`, the IC50 was > 99 µM (inactive).

With `Cc1nc2scc(C)n2c(=O)c1S(=O)(=O)Nc1ccc(Oc2ccc(Cl)cc2)cc1`, the IC50 was > 99 µM (inactive).

Turning to `Cc1ccc2nc(CS(=O)(=O)c3ncccc3Cl)cc(=O)n2c1`, the IC50 was > 99 µM (inactive).

`Cc1nc2scc(C)n2c(=O)c1S(=O)(=O)Nc1ccc(CN2CCCCC2)cc1`: the IC50 is > 99 µM (inactive).

With `O=c1cc(CSc2ccc(S(=O)(=O)N3CCOCC3)cn2)nc2ccc(Br)cn12`, the concentration for half-maximal inhibition (IC50) was 42.9 µM.

In the case of `Cc1ccc(OCC(=O)O/N=C(\N)Cc2ccc(Cl)cc2)cc1`, the IC50 was 20.4 µM.

In the case of `CCn1c(N2CCN(S(=O)(=O)c3ccc(OC)cc3)CC2)nc2ccccc21`, the half-inhibitory concentration (IC50) is 15.8 µM.

As for `O=C(Nc1ccn[nH]1)c1ccc(Br)cc1Cl`, the IC50 was > 99 µM (inactive).

As for `O=C(O)c1cccnc1SCc1cc(=O)n2cc(Br)ccc2n1`, the IC50 is > 99 µM (inactive).

On to `N#C/C(=C\c1ccc(Cl)cc1)C(=O)Nc1cccnc1`, for which the IC50 is 14.2 µM.

For `N/C(=N\OC(=O)c1ccc(F)cc1)c1ccc(Br)cc1`, the half-maximal inhibitory concentration (IC50) is 39.8 µM.

With `Cn1c(SCc2cccc(/C(N)=N/OC(=O)c3ccc(Cl)cc3)c2)nnc1C(F)(F)F`, the 50% inhibitory concentration (IC50) is 3.59 µM.

For the molecule `Cc1ccc(C2=NNC(c3ccc(Cl)cc3Cl)S2)cc1` (centres undefined), the IC50 was 5.15 µM.

For the molecule `CCOc1ccc(C(=O)O/N=C(\N)c2ccc(OC)cc2)cc1OCC`, the 50% inhibitory concentration (IC50) is 5.57 µM.

As for `O=c1cc(C(F)F)oc2c1ccc1ccccc12`, the IC50 is > 99 µM (inactive).

Turning to `Cc1nn(Cc2cccc(C(=O)O/N=C(\N)c3ccc(Cl)cc3)c2)c(C)c1Br`, the IC50 is 1.7 µM.

Take `Cc1ccc(S(=O)(=O)Cc2cc(=O)n3ccccc3n2)nc1`: the IC50 is > 99 µM (inactive).

Regarding `N/C(=N\OC(=O)c1ccccc1)c1ccc(F)cc1F`, the IC50 is 16.7 µM.

Turning to `N#Cc1ccc(C2N=C(c3ccccc3)NO2)cc1` (centres undefined), the IC50 was > 99 µM (inactive).

Consider `CCN(C(=O)c1cccc2ncccc12)c1c(N)n(Cc2ccccc2)c(=O)[nH]c1=O`, for which the IC50 is > 99 µM (inactive).

As to `COc1ccc(/C=C/C(=O)Nc2ccc3c(c2)CCC3)cc1OC`, the concentration for half-maximal inhibition (IC50) was 11.2 µM.

Take `O=C(N/N=C/C(Cl)=C\c1ccccc1)c1cccs1`: the concentration for half-maximal inhibition (IC50) was 9.48 µM.

`NC(=O)C1CCN(c2nc(-c3cccnc3)nc3ccccc23)CC1`: the IC50 is > 99 µM (inactive).

On to `Cc1ccc(-c2cc(NC(=O)c3c(C)noc3C)nc(-c3ccccc3)c2)cc1`, for which the IC50 was > 99 µM (inactive).

Regarding `Cc1cc(OCC(=O)O/N=C(\N)Cc2ccc(Cl)cc2)ccc1Br`, the IC50 is 2.1 µM.

Regarding `Cc1nc2scc(C)n2c(=O)c1S(=O)(=O)Nc1ccc(N2CCOCC2)c(Cl)c1`, the IC50 was > 99 µM (inactive).

With `N/C(=N\OC(=O)c1ccc(Cl)cc1)c1cccc(CS(=O)(=O)c2ccccn2)c1`, the concentration for half-maximal inhibition (IC50) was 19.2 µM.

As to `CN1CCN(c2nc(-c3cccnc3)nc3ccccc23)CC1`, the IC50 is > 99 µM (inactive).

As for `N#Cc1c(-c2ccccc2)cc(-c2ccc(O)cc2)nc1N`, the half-maximal inhibitory concentration (IC50) was 4.52 µM.

Consider `CCN1CCc2nc3sc(C(=O)Nc4cc(Cl)ccc4OC)c(N)c3cc2C1`, for which the IC50 was > 99 µM (inactive).

As to `Cc1nc2sc(C)c(C)n2c(=O)c1S(=O)(=O)Nc1ccc(Br)cc1`, the IC50 was > 99 µM (inactive).

Consider `N#Cc1c(-c2ccc([N+](=O)[O-])cc2)cc(-c2ccccc2)nc1N`, for which the IC50 is > 99 µM (inactive).

On to `Cc1nc2scc(C)n2c(=O)c1S(=O)(=O)Nc1ccc2c(c1)OCCO2`, for which the IC50 is 80.5 µM.

For the molecule `Cc1nc2scc(C)n2c(=O)c1S(=O)(=O)Nc1ccc(Cl)c(C(F)(F)F)c1`, the IC50 is 91.1 µM.

Regarding `O=C1OC(c2ccccc2)=N/C1=C\C=C\c1ccco1`, the IC50 was 6.78 µM.

For `Cc1nc2scc(C)n2c(=O)c1S(=O)(=O)Nc1cc(C(F)(F)F)ccc1Cl`, the IC50 was 79.2 µM.

`N/C(=N\OC(=O)c1ccc(Cl)cc1)c1ccc(S(=O)(=O)N2CCOCC2)cc1`: the half-inhibitory concentration (IC50) was 4.81 µM.

On to `CCCN(C(=O)c1ccc([N+](=O)[O-])c(C)c1)c1c(N)n(Cc2ccccc2)c(=O)[nH]c1=O`, for which the IC50 was > 99 µM (inactive).

As to `O=C(Nc1ccc(-c2cn3ccccc3n2)cc1)c1cccs1`, the IC50 was 7.93 µM.

`Cc1ccc(/C(N)=N/OC(=O)c2ccccc2)cc1F`: the half-maximal inhibitory concentration (IC50) was 1.37 µM.

With `CCCCOc1ccc(C(=O)O/N=C(\N)c2cccc(Br)c2)cc1`, the IC50 is 20.8 µM.

In the case of `C=C1CCc2c([nH]c3ccc(OCC(C)C)cc23)C1=O`, the IC50 was 1.59 µM.

As to `Cc1ccc2nc(CSc3ncc(C(F)(F)F)cc3Cl)cc(=O)n2c1`, the IC50 was > 99 µM (inactive).

Turning to `Nc1cccc(Oc2ccc(Oc3cccc(N)c3)cc2)c1`, the IC50 was > 99 µM (inactive).

For `O=C(Nc1nc2ccccc2s1)C1CCCN1S(=O)(=O)c1ccc(Cl)cc1` (centres undefined), the 50% inhibitory concentration (IC50) is 6.26 µM.

Turning to `N/C(=N\OC(=O)c1cccc2ccccc12)c1ccc(Cl)cc1`, the IC50 was 0.781 µM.

These data come from PubChem BioAssay AID602380 (Sanford-Burnham Center for Chemical Genomics, 2012).
